From US8541588B2, “Sulfonamide derivatives” (Pfizer Limited, priority 2009, dated 2013)

Biological target: T1, Nav1.7 (or SCN9A) channel; HEK cells stably transfected with hSCN9A (Homo sapiens, UniProt Q15858)
T1 construct: expressed in transfected cells
Assay: Nav1.7 block, PatchXpress 7000 automated whole-cell voltage clamp, estimated IC50 (EIC50)
Type: cell-based
Conditions: estimated IC50, PatchXpress platform

[1] = hSCN9A HEK cells, Examples 283-814
[2] = hSCN9A HEK cells, Examples 815-1040
[3] = hSCN9A HEK cells held at V1/2 of inactivation

T1 sequence (Q15858 whole entry): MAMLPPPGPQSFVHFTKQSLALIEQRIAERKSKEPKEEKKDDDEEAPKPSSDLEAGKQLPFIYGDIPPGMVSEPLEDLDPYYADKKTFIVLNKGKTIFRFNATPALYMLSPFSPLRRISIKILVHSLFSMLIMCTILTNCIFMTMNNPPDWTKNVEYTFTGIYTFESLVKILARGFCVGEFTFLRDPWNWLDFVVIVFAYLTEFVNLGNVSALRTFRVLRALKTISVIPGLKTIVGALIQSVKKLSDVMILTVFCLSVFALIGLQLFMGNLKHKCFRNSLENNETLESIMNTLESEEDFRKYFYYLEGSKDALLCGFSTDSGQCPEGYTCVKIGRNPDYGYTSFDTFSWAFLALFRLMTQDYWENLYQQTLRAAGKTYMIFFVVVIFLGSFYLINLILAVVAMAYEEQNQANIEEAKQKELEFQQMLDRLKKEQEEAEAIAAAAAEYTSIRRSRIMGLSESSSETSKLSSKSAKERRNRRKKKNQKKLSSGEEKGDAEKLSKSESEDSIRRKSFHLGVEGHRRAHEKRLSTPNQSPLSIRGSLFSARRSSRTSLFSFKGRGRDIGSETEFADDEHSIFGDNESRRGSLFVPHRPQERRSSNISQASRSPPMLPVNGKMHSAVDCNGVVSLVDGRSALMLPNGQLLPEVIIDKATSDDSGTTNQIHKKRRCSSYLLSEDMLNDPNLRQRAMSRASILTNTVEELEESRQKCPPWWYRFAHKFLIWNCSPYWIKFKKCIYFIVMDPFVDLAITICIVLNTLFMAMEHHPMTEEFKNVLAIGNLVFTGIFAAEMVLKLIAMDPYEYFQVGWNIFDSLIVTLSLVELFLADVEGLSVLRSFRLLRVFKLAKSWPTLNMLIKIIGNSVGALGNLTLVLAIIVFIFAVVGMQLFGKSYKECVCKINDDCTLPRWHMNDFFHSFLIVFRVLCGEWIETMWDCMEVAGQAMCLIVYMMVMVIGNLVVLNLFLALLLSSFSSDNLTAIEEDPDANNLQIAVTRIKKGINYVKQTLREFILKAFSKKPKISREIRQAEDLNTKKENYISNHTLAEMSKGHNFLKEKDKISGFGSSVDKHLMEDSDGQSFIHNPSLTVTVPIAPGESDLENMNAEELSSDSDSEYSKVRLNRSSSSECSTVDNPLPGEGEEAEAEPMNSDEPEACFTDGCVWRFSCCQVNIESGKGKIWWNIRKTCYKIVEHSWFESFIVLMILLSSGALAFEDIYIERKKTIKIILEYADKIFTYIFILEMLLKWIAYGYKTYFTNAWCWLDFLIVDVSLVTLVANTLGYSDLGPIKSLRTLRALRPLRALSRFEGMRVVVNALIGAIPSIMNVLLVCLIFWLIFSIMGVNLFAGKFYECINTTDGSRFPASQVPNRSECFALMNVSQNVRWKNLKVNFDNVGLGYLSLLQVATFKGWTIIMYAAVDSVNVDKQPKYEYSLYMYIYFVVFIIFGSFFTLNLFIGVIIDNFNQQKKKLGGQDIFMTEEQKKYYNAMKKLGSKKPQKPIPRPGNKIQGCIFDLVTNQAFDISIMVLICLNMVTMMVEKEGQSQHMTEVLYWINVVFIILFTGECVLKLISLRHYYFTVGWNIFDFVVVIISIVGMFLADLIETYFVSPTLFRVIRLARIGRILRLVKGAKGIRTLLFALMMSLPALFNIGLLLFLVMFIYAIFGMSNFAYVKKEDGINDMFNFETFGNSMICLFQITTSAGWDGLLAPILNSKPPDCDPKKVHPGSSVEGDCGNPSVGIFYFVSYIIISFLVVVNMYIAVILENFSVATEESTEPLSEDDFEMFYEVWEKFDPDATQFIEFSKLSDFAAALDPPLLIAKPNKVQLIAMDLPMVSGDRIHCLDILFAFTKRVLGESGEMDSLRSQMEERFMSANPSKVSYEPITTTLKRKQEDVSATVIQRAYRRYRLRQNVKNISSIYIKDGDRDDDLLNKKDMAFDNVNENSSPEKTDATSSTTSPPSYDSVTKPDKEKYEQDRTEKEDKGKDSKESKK

| Compound | IC50 [1] | IC50 [3] | also measured |
| --- | --- | --- | --- |
| O=S(=O)(Nc1ncns1)c1ccc(Oc2ccc(C(F)(F)F)cc2-c2ccnnc2)c(F)c1 [Example 929, 3-fluoro-4-[2-pyridazin-4-yl-4-(trifluoromethyl)phenoxy]-N-1,2,4-thiadiazol-5-ylbenzenesulfonamide] | – | – | IC50 [2]: 100 nM |
| N#Cc1cc(S(=O)(=O)Nc2nccs2)ccc1Oc1ccc(-n2ccc(C(F)(F)F)n2)c(Cl)c1 [Example 380, 4-{3-chloro-4-[3-(trifluoromethyl)-1H-pyrazol-1-yl]phenoxy}-3-cyano-N-1,3-thiazol-2-ylbenzenesulfonamide] | 200 nM | – | – |
| O=S(=O)(Nc1nncs1)c1ccc(Oc2ccc(Cl)cc2-c2ccnnc2)c(C(F)(F)F)c1 [Example 1018, 4-(4-chloro-2-pyridazin-4-ylphenoxy)-N-1,3,4-thiadiazol-2-yl-3-(trifluoromethyl)benzenesulfonamide] | – | – | IC50 [2]: 230 nM |
| CCn1nc(C(C)(C)C#N)cc1-c1ccc(Oc2ccc(S(=O)(=O)Nc3nccs3)cc2C#N)cc1 [Example 548, 3-cyano-4-{4-[3-(1-cyano-1-methylethyl)-1-ethyl-1H-pyrazol-5-yl]phenoxy}-N-1,3-thiazol-2-ylbenzenesulfonamide] | 410 nM | – | – |
| CC(C)(C)n1nc(C(F)(F)F)cc1-c1ccc(Oc2ccc(S(=O)(=O)Nc3nccs3)cc2C#N)cc1 [Example 279, 4-[4-(2-tertbutyl-5-trifluoromethyl-2H-pyrazol-3-yl)-phenoxy]-3-cyano-N-thiazol-2-yl-benzenesulfonamide] | – | 70 nM | – |
| 3-fluoro-4-(4-methyl-2-(1-methyl-1H-pyrazol-3-yl)phenoxy)-N-(thiazol-2-yl)benzenesulfonamide [Example 215] | – | 6440 nM | – |
| CCn1nc(C(F)(F)F)cc1-c1ccc(Oc2ccc(S(=O)(=O)Nc3ncc(F)cn3)cc2C#N)cc1 [Example 338, 3-cyano-4-{4-[1-ethyl-3-(trifluoromethyl)-1H-pyrazol-5-yl]phenoxy}-N-(5-fluoropyrimidin-2-yl)benzenesulfonamide] | 1800 nM | – | – |
| N#Cc1cc(S(=O)(=O)Nc2nccs2)ccc1Oc1cccc(-c2ccccc2)c1 [Example 778, 4-(biphenyl-3-yloxy)-3-cyano-N-1,3-thiazol-2-ylbenzenesulfonamide] | 470 nM | – | – |
| O=S(=O)(Nc1nccs1)c1ccc(Oc2ccc(F)cc2-c2ccn[nH]2)c(F)c1 [Example 218, 3-fluoro-4-(4-fluoro-2-(1H-pyrazol-5-yl)phenoxy)-N-(thiazol-2-yl)benzenesulfonamide] | – | 230 nM | – |
| CN(C)CCn1nc(C(F)(F)F)cc1-c1cccc(Oc2ccc(S(=O)(=O)Nc3nccs3)cc2C#N)c1 [Example 550, 3-cyano-4-(3-{1-[2-(dimethylamino)ethyl]-3-(trifluoromethyl)-1H-pyrazol-5-yl}phenoxy)-N-1,3-thiazol-2-ylbenzenesulfonamide] | 200 nM | – | – |
| N#Cc1cc(S(=O)(=O)Nc2nncs2)ccc1Oc1ccc(Cl)cc1-c1cn[nH]c1 [Example 839, 4-[4-chloro-2-(1H-pyrazol-4-yl)phenoxy]-3-cyano-N-1,3,4-thiadiazol-2-ylbenzenesulfonamide] | – | – | IC50 [2]: 130 nM |
| CCn1nc(C(F)(F)F)cc1-c1ccc(Oc2ncc(S(=O)(=O)Nc3nccs3)cc2Cl)cc1 [Example 758, 5-chloro-6-{4-[1-ethyl-3-(trifluoromethyl)-1H-pyrazol-5-yl]phenoxy}-N-1,3-thiazol-2-ylpyridine-3-sulfonamide] | 210 nM | – | – |
| Cn1nc(Cc2ccc(Cl)cc2)cc1Oc1ccc(S(=O)(=O)Nc2nccs2)cc1F [Example 241, 4-[5-(4-chloro-benzyl)-2-methyl-2H-pyrazol-3-yloxy]-3-fluoro-N-thiazol-2-yl-benzenesulfonamide] | – | 1470 nM | – |
| Cn1nccc1-c1ccc(I)cc1Oc1ccc(S(=O)(=O)Nc2nccs2)cc1C#N [Example 359, 3-cyano-4-[5-iodo-2-(1-methyl-1H-pyrazol-5-yl)phenoxy]-N-1,3-thiazol-2-ylbenzenesulfonamide] | 11 nM | – | – |
| N#Cc1cc(S(=O)(=O)Nc2ccc(F)cn2)ccc1Oc1ccc(Cl)cc1-c1cn[nH]c1 [Example 314, 4-[4-chloro-2-(1H-pyrazol-4-yl)phenoxy]-3-cyano-N-(5-fluoropyridin-2-yl)benzenesulfonamide] | 730 nM | – | – |
| COCc1cccc(-c2cc(Oc3ccc(S(=O)(=O)Nc4ncc(F)s4)cc3C#N)ccc2Cl)c1 [Example 532, 4-{[6-chloro-3′-(methoxymethyl)biphenyl-3-yl]oxy}-3-cyano-N-(5-fluoro-1,3-thiazol-2-yl)benzenesulfonamide] | 2900 nM | – | – |
| CCc1ccc(Oc2ccc(S(=O)(=O)Nc3ncns3)cc2C#N)c(-c2ccccc2)n1 [Example 19, 3-cyano-4-[(6-ethyl-2-phenylpyridin-3-yl)oxy]-N-1,2,4-thiadiazol-5-ylbenzenesulfonamide] | – | 720 nM | – |
| Cc1ccnn1-c1cc(F)ccc1Oc1ccc(S(=O)(=O)Nc2nccs2)cc1C#N [Example 176, 3-cyano-4-(4-fluoro-2-(5-methyl-1H-pyrazol-1-yl)phenoxy)-N-(thiazol-2-yl)benzenesulfonamide] | – | 8870 nM | – |
| Cn1nccc1-c1cc(Cl)ccc1Oc1ccc(S(=O)(=O)Nc2cncnc2)cc1C#N [Example 895, 4-[4-chloro-2-(1-methyl-1H-pyrazol-5-yl)phenoxy]-3-cyano-N-pyrimidin-5-ylbenzenesulfonamide] | – | – | IC50 [2]: >30000 nM |
| CN(C)C(=O)c1cccc(-c2ccccc2)c1Oc1ccc(S(=O)(=O)Nc2ncns2)cc1C#N [Example 1008, 2-{2-cyano-4-[(1,2,4-thiadiazol-5-ylamino)sulfonyl]phenoxy}-N,N-dimethylbiphenyl-3-carboxamide] | – | – | IC50 [2]: 740 nM |
| Nc1cc(-c2cc(Cl)ccc2Oc2cc(F)c(S(=O)(=O)Nc3nncs3)cc2F)ccn1 [Example 820, 4-[2-(2-aminopyridin-4-yl)-4-chlorophenoxy]-2,5-difluoro-N-1,3,4-thiadiazol-2-ylbenzenesulfonamide] | – | – | IC50 [2]: 230 nM |
| COc1nsc(NS(=O)(=O)c2ccc(Oc3ccccc3-c3ccccc3)c(C#N)c2)n1 [Example 96, 4-(biphenyl-2-yloxy)-3-cyano-N-(3-methoxy-1,2,4-thiadiazol-5-yl)benzenesulfonamide] | – | 12500 nM | – |

Now from value to compound, other results behind:

| IC50 [1] | IC50 [3] | Compound | also measured |
| --- | --- | --- | --- |
| 44 nM | – | O=S(=O)(Nc1ncns1)c1ccc(Oc2ccc(F)cc2-c2ccn[nH]2)c(Cl)c1 [Example 478, 3-chloro-4-[4-fluoro-2-(1H-pyrazol-5-yl)phenoxy]-N-1,2,4-thiadiazol-5-ylbenzenesulfonamide] | – |
| – | 9200 nM | Cc1cc(CN2CCCC2)cc(C)c1Oc1ccc(S(=O)(=O)Nc2nccs2)cc1F [Example 123, 4-[2,6-dimethyl-4-(pyrrolidin-1-ylmethyl)phenoxy]-3-fluoro-N-1,3-thiazol-2-ylbenzenesulfonamide] | – |
| – | 1600 nM | O=S(=O)(Nc1nccs1)c1ccc(Oc2ccc(F)cc2-c2ccn[nH]2)cc1F [Example 213, 2-fluoro-4-(4-fluoro-2-(1H-pyrazol-5-yl)phenoxy)-N-(thiazol-2-yl)benzenesulfonamide] | – |
| – | 25700 nM | N#Cc1cc(S(=O)(=O)Nc2ncns2)ccc1Oc1ccc(CN2CCC2)cc1F [Example 61, 4-[4-(azetidin-1-ylmethyl)-2-fluorophenoxy]-3-cyano-N-1,2,4-thiadiazol-5-ylbenzenesulfonamide] | – |
| 170 nM | – | CC(C)(C)n1nccc1-c1cc(F)ccc1Oc1ccc(S(=O)(=O)Nc2ncns2)cc1Cl [Example 476, 4-[2-(1-tert-butyl-1H-pyrazol-5-yl)-4-fluorophenoxy]-3-chloro-N-1,2,4-thiadiazol-5-ylbenzenesulfonamide] | – |
| >1000 nM | – | Cn1cnnc1-c1cc(Cl)ccc1Oc1ccc(S(=O)(=O)Nc2nccs2)cc1F [Example 306, 4-[4-chloro-2-(4-methyl-4H-1,2,4-triazol-3-yl)phenoxy]-3-fluoro-N-1,3-thiazol-2-ylbenzenesulfonamide] | – |
| – | 2090 nM | N#Cc1cc(S(=O)(=O)Nc2nccs2)ccc1Oc1ccccc1-c1nnco1 [Example 173, 4-(2-(1,3,4-oxadiazol-2-yl)phenoxy)-3-cyano-N-(thiazol-2-yl)benzenesulfonamide] | – |
| 220 nM | – | CCn1nc(C(F)(F)F)cc1-c1ccc(Oc2ccc(S(=O)(=O)Nc3ncc(F)s3)cc2C#N)cc1F [Example 536, 3-cyano-4-{4-[1-ethyl-3-(trifluoromethyl)-1H-pyrazol-5-yl]-3-fluorophenoxy}-N-(5-fluoro-1,3-thiazol-2-yl)benzenesulfonamide] | – |
| – | 1110 nM | N#Cc1cc(S(=O)(=O)Nc2ncns2)ccc1Oc1cc(F)ccc1Oc1ccccc1 [Example 74, 3-cyano-4-(5-fluoro-2-phenoxyphenoxy)-N-1,2,4-thiadiazol-5-ylbenzenesulfonamide] | – |
| 200 nM | – | Cn1nccc1-c1cc(F)ccc1Oc1ccc(S(=O)(=O)Nc2ccncn2)cc1Cl [Example 669, 3-Chloro-4-[4-fluoro-2-(1-methyl-1H-pyrazol-5-yl)phenoxy]-N-pyrimidin-4-ylbenzenesulfonamide] | – |
| – | 1510 nM | O=S(=O)(Nc1ncc(Cl)s1)c1ccc(Oc2ccccc2-c2ccccc2)c(F)c1 [Example 147, 4-(Biphenyl-2-yloxy)-N-(5-chloro-thiazol-2-yl)-3-fluoro-benzenesulfonamide] | – |
| – | 1390 nM | N#Cc1cc(S(=O)(=O)Nc2ncc(Cl)s2)ccc1Oc1ccccc1C1CC1 [Example 144, N-(5-chloro-1,3-thiazol-2-yl)-3-cyano-4-(2-cyclopropylphenoxy)benzenesulfonamide] | – |
| – | >10000 nM | N#Cc1cc(S(=O)(=O)Nc2ncns2)ccc1Oc1ccccc1Oc1ccccc1C(N)=O [Example 76, 2-(2-{2-cyano-4-[(1,2,4-thiadiazol-5-yl-amino)sulfonyl]phenoxy}phenoxy)benzamide] | – |
| 5500 nM | – | COc1cc(Oc2ccc(S(=O)(=O)Nc3ccc(F)cn3)cc2C#N)ccc1-n1ccnc1C [Example 578, 3-cyano-N-(5-fluoropyridin-2-yl)-4-[3-methoxy-4-(2-methyl-1H-imidazol-1-yl)phenoxy]benzenesulfonamide] | – |
